In general, pIC50 refers to −log10 of the IC50, conventionally taken in molar units.

pIC50: −log10 of the molar value.

This passage reports IC50 results from US6815439B2, “Substituted aza-oxindole derivatives” (SmithKline Beecham Corporation, priority 1999, dated 2004).

Common to all, as to type: biochemical
In one test the target is T1, VEGFR-2 (Homo sapiens, UniProt P35968).
T1 construct: The kinase domain of the enzyme was purified to homogeneity from a baculovirus expression system; made in house
The test is described as follows: VEGFR-2 kinase assay. The settings on record: kinase inhibition, Table 3; read-out: VEGFR2 (IC50). As to the method: The peptide substrate used in the VEGFR-2 assay was biotin-aminohexyl-[…]-NH2. The kinase domain of the enzyme was purified to homogeneity from a baculovirus expression system. The enzyme was preactivated on ice for 15 min in the presence of 100 μM ATP and 20 mM MgCl2, and stored at −80° C. until needed for assay. The activated enzyme was diluted to 0.4 nM into a 60 μl reaction containing 100 mM HEPES, pH 7.5, 5 μM ATP, 10 mM MgCl2, 5 μM peptide, 0.1 mM DTT, 0.05 mg/ml BSA, and an inhibitor at varying concentrations. The controls were reactions in the presence (negative controls) or absence (positive controls) of 50 mM EDTA. Reactions were incubated for 30 min at room temperature, and then quenched by the addition of EDTA to 60 mM in 210 μl. The quenched samples (190 μl) were transferred to a neutravidin-coated plate (Pierce) and incubated at room temperature for 40 min to allow biotinylated peptide to bind to the neutravidin. The unbound components of the reaction were removed by washing with a plate washer, then 200 μl HRP-PY20 anti-phosphotyrosine antibody conjugate was added to each well. After incubation for 40 min, the plate was washed to remove any unbound anitbody. A HRP substrate, K-blue (Neogen) was added and the reaction was quenched with Red Stop (Neogen) after 20 min. The absorbance of the wells was read at A650 in a plate reader. IC50 values were obtained by fitting raw data to A650=VMAX*(1−[I]/IC50+[I])))+b, where b is background.

The next test concerns the target CDK2 (Homo sapiens, UniProt P24941). Briefly: CDK2 substrate phosphorylation assay. The following applies: kinase inhibition, Table 3. As to the method:
Cyclin dependent protein kinase assays utilized the peptides Biotin-aminohexyl-[…] and Biotin-aminohexyl-[…]-NH2 as phosphoryl group acceptors. CDK2 was expressed utilizing a baculovirus expression system and was partially purified to comprise 20-80% of total protein, with no detectable competing reactions present. Typically, assays were performed by incubating enzyme (0.2-10 nM), with and without inhibitor, one of the two peptide substrates ([…]), [γ-^32P]ATP ([…]), and 10-20 mM Mg^2+ for periods of time generally within the range 10-120 min. Reactions were terminated with 0.2-2 volumes of either 20% acetic acid or 50-100 mM EDTA buffered to pH 7 (substrate consumption <20%). The buffer employed in enzyme assays was either 30 mM HEPES 7.4 containing 0.15 M NaCl and 5% DMSO, the buffer 50 mM MOPS 7.0 containing 0.15 M NaCl and 5% DMSO, or the buffer 100 mM HEPES pH 7.5 containing 0.1 mg/mL BSA and 5% DMSO. Inhibitors were diluted in 100% DMSO prior to addition into the assay. Detection of peptide phosphorylation was accomplished by scintillation counting following either collection of peptide onto phosphocellulose filters (for reactions stopped with acetic acid), collection of peptide in wells of 96 well plates coated with Streptavidin (Pierce) (reactions were stopped with EDTA), or addition of Avidin coated Scintillant impregnated beads (Scintillation Proximity Assays from Amersham; reactions were stopped with EDTA).

Another test has as its target T2, c-fms (Homo sapiens, UniProt P07333).
T2 construct: The c-fms intracellular domain was expressed from a baculovirus expression system; GST (N); made in house
T2 sequence (P07333 539-972 limits assumed): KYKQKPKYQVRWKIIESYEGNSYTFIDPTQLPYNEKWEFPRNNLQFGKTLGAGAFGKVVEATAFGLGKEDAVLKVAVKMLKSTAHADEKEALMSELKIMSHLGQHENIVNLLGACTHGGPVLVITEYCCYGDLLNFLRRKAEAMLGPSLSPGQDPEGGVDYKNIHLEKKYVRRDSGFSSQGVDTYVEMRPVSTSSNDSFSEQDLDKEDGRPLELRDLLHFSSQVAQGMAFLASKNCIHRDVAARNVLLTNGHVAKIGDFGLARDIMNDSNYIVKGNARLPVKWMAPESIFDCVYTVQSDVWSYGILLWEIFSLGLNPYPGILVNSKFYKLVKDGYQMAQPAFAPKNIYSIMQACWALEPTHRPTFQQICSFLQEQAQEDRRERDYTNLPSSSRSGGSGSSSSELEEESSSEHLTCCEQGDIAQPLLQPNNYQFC
The test is described as follows: c-fms protein kinase assay. The settings on record: kinase inhibition, Table 3. As to the method:
c-fms protein kinase assays utilized the peptide substrate, biotin-[…]-NH2 as the phosphoryl group acceptor. The c-fms intracellular domain was expressed from a baculovirus expression system, as an amino-terminal GST fusion protein, and purified to homogeneity using Glutathione agarose from Sigma Chemical Co. Maximum activation of the enzyme was achieved by preactivation at room temperature for 120 min in the presence of 100 μM ATP and 15 mM MgCl2, This enzyme stock was diluted to 150 nM prior to using in the assay. Typically assays were performed in white, opaque, 96-well plates in a 45 ul assay volume including 15 ul 6% DMSO, with or without compounds, 15 ul of the preactivated, diluted enzyme, and 15 ul of a substrate mixture. Reactions contained 50 mM HEPES, pH 7.5, 1.7 μM ATP, 15 mM MgCl2, 3 μM peptide, 2.5 mM DTT, 50 mM NaCl and 0.15 uCi/assay [□□^32P]ATP. The controls were reactions in the presence (negative controls) or absence (positive controls) of 50 mM EDTA. Reactions were allowed to proceed for 90 min at room temperature. The reaction products were quantified using Scintillation Proximity technolgy. The reactions were quenched by the addition of 200 ul of a solution containing 0.3 mg streptavidin SPA beads from Amersham, 50 mM EDTA, 0.1% TX-100, 50 uM ATP, in PBS, pH7.2 (phosphate buffered solution). Plates were sealed and counted in a Packard Topcount scintillation counter. IC50 values were obtained by fitting raw data to the equation y=Vmax*(1−(x/(k+x))).

T1 sequence (P35968 834-1162 limits assumed, species assumed): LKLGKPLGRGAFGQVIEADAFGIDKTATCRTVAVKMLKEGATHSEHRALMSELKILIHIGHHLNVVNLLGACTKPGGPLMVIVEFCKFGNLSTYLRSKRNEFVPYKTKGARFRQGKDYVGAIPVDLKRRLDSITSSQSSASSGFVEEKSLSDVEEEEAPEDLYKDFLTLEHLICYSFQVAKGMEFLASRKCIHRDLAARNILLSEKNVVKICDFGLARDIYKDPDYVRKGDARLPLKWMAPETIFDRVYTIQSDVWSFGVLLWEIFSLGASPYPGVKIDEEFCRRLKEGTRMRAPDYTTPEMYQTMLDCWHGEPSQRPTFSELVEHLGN

Take `NS(=O)(=O)c1ccc(NC=C2C(=O)Nc3ncc(-c4ccco4)cc32)cc1` [Example 11, 4-({[5-(2-Furyl)-2-oxo-1,2-dihydro-3H-pyrrolo[2,3-b]pyridin-3-ylidene]methyl}amino)benzenesulfonamide]: the pIC50 was 5.00 to 6.00 at VEGFR-2, 7.00 to 8.00 against CDK2 and 6.00 to 7.00 on c-fms.

In the case of `O=C1Nc2ncc(-c3ccco3)cc2C1=CNc1ccc2cn[nH]c2c1` [Example 12, 5-(2-Furyl)-3-[(1H-indazol-6-ylamino)methylidene]-1H-pyrrolo[2,3-b]pyridin-2-one], the values for the pIC50 on VEGFR-2, against CDK2 and at c-fms were 6.00 to 7.00, 5.00 to 6.00 and 5.00 to 6.00, respectively.

Take `NS(=O)(=O)c1ccc(NC=C2C(=O)Nc3ncc(-c4ccsc4)cc32)cc1` [Example 14, 4-({[2-Oxo-5-(3-thienyl)-1,2-dihydro-3H-pyrrolo[2,3-b]pyridin-3-ylidene]methyl}amino)benzenesulfonamide]: the pIC50 on VEGFR-2, at CDK2 and against c-fms was 6.00 to 7.00 each time.

Regarding `O=C1Nc2ncc(-c3ccsc3)cc2C1=CNc1ccc2cn[nH]c2c1` [Example 15, 3-[(1H-Indazol-6-ylamino)methylidene]-5-(3-thienyl)-1,3-dihydro-2H-pyrrolo[2,3-b]pyridin-2-one], the pIC50 was 5.00 to 6.00 at VEGFR-2, 6.00 to 7.00 on CDK2 and 5.00 to 6.00 against c-fms.

With `NS(=O)(=O)c1ccc(NC=C2C(=O)Nc3ncc(Br)cc32)cc1` [Example 17, 4-{[(5-Bromo-2-oxo-1,2-dihydro-3H-pyrrolo[2,3-b]pyridin-3-ylidene)methyl]amino}benzenesulfonamide], the pIC50 is 6.00 to 7.00 at VEGFR-2, 7.00 to 8.00 at CDK2 and 5.00 to 6.00 on c-fms.

For the compound `O=C1Nc2ncc(Br)cc2C1=CNc1ccc2cn[nH]c2c1` [Example 18, 5-Bromo-3-[(1H-indazol-6-ylamino)methylidene]-1,3-dihydro-2H-pyrrolo[2,3-b]pyridin-2-one], the pIC50 at VEGFR-2 was 6.00 to 7.00; against CDK2, 7.00 to 8.00; against c-fms it was 5.00 to 6.00.

As for `O=C1Nc2ncc(Br)cc2C1=CNc1ccc2ncccc2c1` [Example 19, 5-Bromo-3-[(6-quinolinylamino)methylidene]-1,3-dihydro-2H-pyrrolo[2,3-b]pyridin-2-one], the pIC50 was 6.00 to 7.00 on VEGFR-2, 7.00 to 8.00 at CDK2 and 5.00 to 6.00 at c-fms.

As for `O=C1Nc2nc(Cl)ccc2C1=CNc1ccc2cn[nH]c2c1` [Example 21, 6-Chloro-3-[(1H-indazol-6-ylamino)methylidene]-1,3-dihydro-2H-pyrrolo[2,3-b]pyridin-2-one], the pIC50 at VEGFR-2 was 6.00 to 7.00; against CDK2, 6.00 to 7.00; against c-fms, 5.00 to 6.00.

With `CCOC(=O)c1cnc2c(c1)C(=CNc1ccc(S(N)(=O)=O)cc1)C(=O)N2` [Example 23, Ethyl 3-{[4-(aminosulfonyl)anilino]methylidene}-2-oxo-1,2-dihydro-3H-pyrrolo[2,3-b]pyridine-5-carboxylate], the results for the pIC50 on VEGFR-2, against CDK2 and on c-fms were 6.00 to 7.00, 7.00 to 8.00 and 5.00 to 6.00, respectively.

In the case of `CCOC(=O)c1cnc2c(c1)C(=CNc1ccc3cn[nH]c3c1)C(=O)N2` [Example 24, Ethyl 3-[(1H-indazol-6-ylamino)methylidene]-2-oxo-1,2-dihydro-3H-pyrrolo[2,3-b]pyridine-5-carboxylate], the pIC50 on VEGFR-2 is 7.00 to 8.00; on CDK2, 7.00 to 8.00; against c-fms, 5.00 to 6.00.
